From BindingDB's records for PubMed 31865013 (n/a, 2020)

Target: T1, Histone deacetylase 6 (Homo sapiens, UniProt Q9UBN7)
T1 sequence (Q9UBN7 whole entry): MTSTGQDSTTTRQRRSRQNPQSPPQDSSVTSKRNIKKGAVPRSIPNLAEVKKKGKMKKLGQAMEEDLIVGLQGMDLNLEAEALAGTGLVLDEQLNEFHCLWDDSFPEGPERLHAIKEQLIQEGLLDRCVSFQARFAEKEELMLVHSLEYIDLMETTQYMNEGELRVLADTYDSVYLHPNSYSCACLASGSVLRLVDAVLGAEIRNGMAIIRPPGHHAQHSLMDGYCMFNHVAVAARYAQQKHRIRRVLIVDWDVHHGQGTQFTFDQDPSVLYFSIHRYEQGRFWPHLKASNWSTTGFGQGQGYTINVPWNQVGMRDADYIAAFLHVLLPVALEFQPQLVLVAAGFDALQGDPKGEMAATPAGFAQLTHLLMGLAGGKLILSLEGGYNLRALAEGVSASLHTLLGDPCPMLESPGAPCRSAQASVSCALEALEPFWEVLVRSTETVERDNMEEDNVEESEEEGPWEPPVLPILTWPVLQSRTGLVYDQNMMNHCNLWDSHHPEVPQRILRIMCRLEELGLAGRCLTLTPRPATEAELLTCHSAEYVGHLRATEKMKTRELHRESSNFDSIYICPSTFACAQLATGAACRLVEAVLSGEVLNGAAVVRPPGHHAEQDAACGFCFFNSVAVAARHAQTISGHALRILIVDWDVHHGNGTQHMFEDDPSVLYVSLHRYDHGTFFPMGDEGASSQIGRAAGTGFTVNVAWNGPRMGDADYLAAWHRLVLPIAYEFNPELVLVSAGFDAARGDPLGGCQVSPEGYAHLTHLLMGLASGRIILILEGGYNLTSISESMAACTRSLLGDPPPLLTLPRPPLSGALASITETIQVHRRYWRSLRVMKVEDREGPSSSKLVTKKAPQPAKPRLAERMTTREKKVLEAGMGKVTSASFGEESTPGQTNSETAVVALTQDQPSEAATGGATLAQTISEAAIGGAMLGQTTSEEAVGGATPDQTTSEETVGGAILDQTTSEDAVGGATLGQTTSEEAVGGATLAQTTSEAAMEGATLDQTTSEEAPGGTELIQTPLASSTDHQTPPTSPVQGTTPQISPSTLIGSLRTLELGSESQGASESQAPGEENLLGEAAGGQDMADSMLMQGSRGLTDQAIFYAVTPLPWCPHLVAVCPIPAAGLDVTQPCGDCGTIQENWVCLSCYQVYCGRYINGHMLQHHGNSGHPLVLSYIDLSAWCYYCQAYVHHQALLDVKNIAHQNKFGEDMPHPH
Experiment: Inhibition of HDAC6 (unknown origin) using Fluor de lys as substrate by fluorescence based analysis

Compound	IC50 [nM]
CCc1cc(Cc2cnc(N)nc2N)cc(CC)c1N	18
CCCCCCCCCCCCOc1c(CC)cc(Cc2cnc(N)nc2N)cc1CC	11
Nc1ncc(Cc2ccc3c(c2)CCCN3)c(N)n1	17
COCCOc1cc(Cc2cnc(N)nc2N)cc2c1NCCC2	16
